The source of these data is patent publication US20220380801A1, “TRIPARTITE SYSTEMS FOR PROTEIN DIMERIZATION AND METHODS OF USE” (priority 2019, published 2022).

One may read the Kd as the free concentration of one partner at which half of the binding sites on the other are occupied at equilibrium, for simple one-to-one binding. The koff is the rate constant with which the complex falls apart. Low readings indicate a long-lived complex, high ones a short-lived complex. The kon is the rate constant with which the complex forms. A low value points to slower complex formation.

Test [1] relates to Caspase 3 activity in kill switch-transduced HT29 cells. In words: Kill switch Caspase 3 functional assay. It is filed as cell-based, human. The settings on record: 10 nM simeprevir, relative to non-transduced cells. As to the method:
(§1) HCT116 and HT29 transduced cells were generated following the same protocol with exception of using McCoy's 5A medium+10% foetal bovine serum as growth medium, supplemented with 2 μg/ml puromycin for selection of transduced cells.
(§2) Functional Caspase 9 activates Caspase 3, and this proteolytic activity can be determined using cleavage of non-fluorescent substrate DEVD-AMC into cleavage products DEVD and fluorescent AMC, such that AMC fluorescence signal at 430 nm is proportional to Caspase 3 activity. For the Caspase 3 assay, cells were plated in duplicate onto 6 well tissue-culture treated plates. 24 h later, one of the duplicate wells was treated with 10 nM simeprevir for 3 h. Cells lysates were analysed in triplicate using a Caspase 3 assay from BD Biosciences according to manufacturer's instruction with the modification that total protein input was normalised to 50 μg by BCA assay (LifeTechnologies). Fluorescence was determined on an Envision plate reader (PerkinElmer), Ex: 380 nm, Em: 430 nm. For quantification, RFU (raw fluorescence value) for wells that contained only the assay substrate were subtracted from all RFU derived from assay samples. Results were normalised to non-transduced, simeprevir-treated cells. Analysis was performed in Prism (GraphPad) using a One-Way-Anova followed by multiple comparisons.

In test [2] the test system is Caspase 3 activity in kill switch-transduced HCT116 cells. In words: Kill switch Caspase 3 functional assay. It is filed as cell-based, human. The settings on record: 10 nM simeprevir, relative to non-transduced cells. As to the method: as §1, §2
The test system of test [3] is IL-2 production by split CAR-expressing Jurkat cells. In words: Split chimeric antigen receptor activation assay. It is filed as cell-based. The source says: A chimeric antigen receptor (CAR), a synthetic, genetically engineered version of a T-cell receptor, can direct the activation of immune cells in response to user-defined targets via target-specific recognition domains, e.g. a single chain variable antibody fragment (scFv). These multi-domain, synthetic proteins are typically constructed by fusion of the target recognition domain to a transmembrane domain, T-cell receptor co-stimulatory domain and a C-terminal CD3 zeta cytoplasmic activation domain. A split-CAR can be generated by expressing the target recognition/transmembrane/co-stimulatory domain and the CD3 zeta activation domain as two separate proteins. […]
Lentiviral particles encoding each split CAR were generated using the pPACKH1 HIV lentivector packaging kit (Systems Bioscience), according to the manufacturer's protocol. […] Split CAR-transduced Jurkat cell pools were FACS-sorted based on GFP fluorescence to achieve equivalent expression levels for both the FKBP12:FRB and HCV NS3/4A PR (S139A):PRSIM_23 CARs before functional testing. Activation of the split-CAR-expressing Jurkat cells can be measured by interleukin-2 (IL-2) production after stimulation of the CAR (Smith-Garvin, Koretzky, and Jordan 2009). […]

For another test, the target named is HCV NS3/4A K136D PR (Hepatitis C virus subtype 1a, UniProt A8DG50, A1066T/I1043Q/I1044E/K1162D/L1039E/L1040E/L1047Q/S1165A, form not given). In words: Octet RED384 simeprevir affinity. The test is classed as binding. As to the method: (§3) The biotinylated HCV NS3/4A PR (S139A), HCV NS3/4A K136D PR, HCV NS3/4A K136N PR and HCV NS3/4A D168E PR were loaded on High Precision Streptavidin (SAX) biosensors at a concentration of 2 μg/ml in 10 mM Hepes pH 7.4, 150 mM NaCl, 0.05% Surfactant P20, 0.3% DMSO. The simeprevir was diluted […] (46.88-3,000 nM) in the same buffer and the loaded biosensors were dipped into the simeprevir samples for 180 sec to measure the association. For the dissociation the biosensors were dipped into the buffer for 600 sec. The traces were analysed using ForteBio Data Analysis software and fit globally using a 1:1 binding model.
On the technique in general: In BLI a coated tip is dipped into the sample, and binding shifts an interference pattern.

A further test has as its target HCV NS3/4A K136N PR (Hepatitis C virus subtype 1a, UniProt A8DG50, A1066T/I1043Q/I1044E/K1162N/L1039E/L1040E/L1047Q/S1165A, form not given). In words: Octet RED384 simeprevir affinity. It is filed as binding. As to the method:
as §3

Structures are written as SMILES.

As for `COc1ccc2c(O[C@@H]3C[C@H]4C(=O)N[C@]5(C(=O)NS(=O)(=O)C6CC6)C[C@H]5/C=C\CCCCN(C)C(=O)[C@@H]4C3)cc(-c3nc(C(C)C)cs3)nc2c1C` [simeprevir], the “Caspase 3 activity” value in test [1] is recorded as “significantly (p<0.0001) up-regulated”. For the same compound, the “Caspase 3 activity” value in test [2] is on record as “significantly (p<0.0001) up-regulated”. For the same compound, the “activation of CAR-expressing Jurkat cells (IL-2 production)” value in test [3] (co-culture with antigen-negative A375 cells) is “no activation”. For the same compound, the “activation of CAR-expressing Jurkat cells (IL-2 production)” value in test [3] (co-culture with antigen-positive HepG2 cells) is on record as “dose-dependent activation”. Moreover, on HCV NS3/4A K136D PR, the dissociation constant (Kd) came to 62.6 nM, the “decreased simeprevir affinity compared to ‘WT’ (S139A)” value is approximately 3.5 fold, the koff was found to be 0.00234 s⁻¹ and the kon worked out at 36200 M⁻¹ s⁻¹. On HCV NS3/4A K136N PR, binding was put at a Kd of 31.5 nM, the “decreased simeprevir affinity compared to ‘WT’ (S139A)” value is approximately 2 fold, the koff was determined as 0.00107 s⁻¹ and the kon came to 33800 M⁻¹ s⁻¹.
